According to ChEMBL document CHEMBL5226361, “Marine Sponge-Derived Alkaloid Induces Mitochondrial Dysfunction and Inhibits the PI3K/AKT/mTOR Signaling Pathway against Burkitt's Lymphoma” (J Nat Prod, 2023):
Calls of active or inactive are those of the source. The calls are words filed in the database; no cut-off is given here.

Experiments:
Raji [1] = assay: Induction of cell cycle arrest in human Raji cells assessed as accumulation of cells at G0/G1 phase at 5 uM incubated for 48 hrs by PI staining based flow cytometry analysis (reference value: 20.16%); format: functional
Daudi [2] = assay: Induction of cell cycle arrest at G0/G1 phase in human Daudi cells assessed as downregulation of CDK2 protein expression at 0.75 to 3 uM incubated for 24 to 48 hrs by Western blot analysis; format: functional, cell-based; conditions: dose 0.75-3 µM, time 24-48 hrs
Raji [3] = assay: Induction of cell cycle arrest at G0/G1 phase in human Raji cells assessed as downregulation of CDK2 protein expression at 1.25 to 5 uM incubated for 24 to 48 hrs by Western blot analysis; format: functional, cell-based; conditions: dose 1.25-5 µM, time 24-48 hrs
Raji [4] = assay: Induction of apoptosis in human Raji cells assessed as total apoptotic cells at 5 uM incubated for 48 hrs by Annexin-V/PI staining based flow cytometric analysis relative to control; format: functional
Daudi [5] = assay: Induction of apoptosis in human Daudi cells assessed as upregulation of cleaved caspase-9 expression at 0.75 to 3 uM incubated for 24 hrs by Western blot analysis; format: functional, cell-based; conditions: dose 0.75-3 µM
Raji [6] = assay: Induction of apoptosis in human Raji cells assessed as upregulation of cytochrome C expression at 1.25 to 5 uM incubated for 24 hrs by Western blot analysis; format: functional, cell-based; conditions: dose 1.25-5 µM
Raji [7] = assay: Induction of apoptosis in human Raji cells assessed as effect on Bax protein expression at 1.25 to 5 uM incubated for 24 hrs by Western blot analysis; format: functional, cell-based; conditions: dose 1.25-5 µM
Daudi [8] = assay: Induction of apoptosis in human Daudi cells assessed as nuclear condensation incubated for 24 hrs by Hoechst 33258/PI staining based fluorescence microscopic analysis; format: functional, cell-based; conditions: dose 0.75-3 µM
Daudi [9] = assay: Induction of apoptosis in human Daudi cells assessed as nuclear fragmentation incubated for 24 hrs by Hoechst 33258/PI staining based fluorescence microscopic analysis; format: functional, cell-based; conditions: dose 0.75-3 µM
Raji [10] = assay: Induction of apoptosis in human Raji cells assessed as nuclear fragmentation incubated for 48 hrs by Hoechst 33258/PI staining based fluorescence microscopic analysis; format: functional, cell-based; conditions: dose 1.25-5 µM
Daudi [11] = assay: Induction of mitochondrial dysfunction in human Daudi cells assessed as decrease in ATP content incubated for 24 hrs by CellTiter-Lumi […] assay; format: functional, cell-based; conditions: dose 0.75-3 µM
Daudi [12] = assay: Effect on total AKT protein level in human Daudi cells at 0.75 to 3 uM incubated for 24 hrs by Western blot analysis; format: functional, cell-based; conditions: dose 0.75-3 µM
Daudi [13] = assay: Effect on total mTOR protein level in human Daudi cells at 0.75 to 3 uM incubated for 24 hrs by Western blot analysis; format: functional, cell-based; conditions: dose 0.75-3 µM
[14] = Inhibition of PI3K/AKT/mTOR signalling pathway in human Daudi cells assessed as inhibition of PI3K phosphorylation incubated for 24 hrs by Western blot analysis; format: cell-based; conditions: dose 0.75-3 µM
Raji [15] = assay: Effect on total AKT protein level in human Raji cells at 1.25 to 5 uM incubated for 24 hrs by Western blot analysis; format: functional, cell-based; conditions: dose 1.25-5 µM
Raji [16] = assay: Effect on total mTOR protein level in human Raji cells at 1.25 to 5 uM incubated for 24 hrs by Western blot analysis; format: functional, cell-based; conditions: dose 1.25-5 µM
[17] = Inhibition of PI3K/AKT/mTOR signalling pathway in human Raji cells assessed as inhibition of AKT phosphorylation at […] residue incubated for 24 hrs by Western blot analysis; format: cell-based; conditions: dose 1.25-5 µM
[18] = Inhibition of PI3K/AKT/mTOR signalling pathway in human Daudi cells assessed as increase in ratio of AKT phosphorylation at […] residue to total AKT protein level at 3 uM incubated for 12 hrs in the presence of YS49 by Western blot analysis; format: cell-based
Daudi [19] = assay: Induction of apoptosis in human Daudi cells assessed as necrotic cells at 3 uM incubated for 24 hrs by Annexin V-FITC/PI staining based flow cytometric analysis (reference value: 1.0%); format: functional
Daudi [20] = assay: Induction of apoptosis in human Daudi cells assessed as necrotic cells at 3 uM incubated for 24 hrs in the presence of YS49 by Annexin V-FITC/PI staining based flow cytometric analysis (reference value: 1.0%); format: functional
Raji [21] = assay: Induction of apoptosis in human Raji cells assessed as late apoptotic cells at 5 uM incubated for 24 hrs by Annexin V-FITC/PI staining based flow cytometric analysis (reference value: 0.0%); format: functional
Raji [22] = assay: Induction of apoptosis in human Raji cells assessed as late apoptotic cells at 5 uM incubated for 24 hrs in the presence of YS49 by Annexin V-FITC/PI staining based flow cytometric analysis (reference value: 0.0%); format: functional

Q: What does the source list for `COc1c(OC)c2c3c(nccc3c1-c1cc(C)cc(C)c1)C(c1cc(C)cc(C)c1)=CN2`?
A: Activity (Raji [1]): 40.65%; Activity (Daudi [2]): Active; Activity (Raji [3]): Active; Activity (Raji [4]): 25.8%; Activity (Daudi [5]): Active; Activity (Raji [6]): Active; Activity (Raji [7]): inactive; Activity (Daudi [8]): Dose-Dependent Effect; Activity (Daudi [9]): Dose-Dependent Effect; Activity (Raji [10]): Dose-Dependent Effect; Activity (Daudi [11]): Dose-Dependent Effect; Activity (Daudi [12]): inactive; Activity (Daudi [13]): inactive; inhibition [14]: Dose-Dependent Effect; Activity (Raji [15]): inactive; Activity (Raji [16]): inactive; inhibition [17]: Dose-Dependent Effect; inhibition [18]: inactive; Activity (Daudi [19]): 2.2%; Activity (Daudi [20]): 1.7%; Activity (Raji [21]): 4.2%; Activity (Raji [22]): 0.9%
